Measured values from ChEMBL document CHEMBL1149602, “Impaired mutagenic activities of MPDP(+) (1-methyl-4-phenyl-2,3-dihydropyridinium) and MPP(+) (1-methyl-4-phenylpyridinium) due to their interactions with methylxanthines” (2007).

Key:
Format in all cases: functional
[1] = system: Vibrio harveyi; experiment: Effect on 1-methyl-4-phenylpyridinium-induced mutagenicity in Vibrio harveyi BB7XM assessed as number of neomycin-resistant mutants at 500 uM
[2] = system: Vibrio harveyi; experiment: Effect on 1-methyl-4-phenyl-2,3-dihydropyridinium-induced mutagenicity in Vibrio harveyi BB7XM assessed as number of neomycin-resistant mutants at 100 uM
[3] = system: Vibrio harveyi; experiment: Effect on 1-methyl-4-phenyl-2,3-dihydropyridinium-induced mutagenicity in Vibrio harveyi BB7XM assessed as number of neomycin-resistant mutants at 500 uM
[4] = system: Vibrio harveyi; experiment: Effect on 1-methyl-4-phenylpyridinium-induced mutagenicity in Vibrio harveyi BB7XM assessed as number of neomycin-resistant mutants at 100 uM
[5] = system: Vibrio harveyi; experiment: Effect on 1-methyl-4-phenylpyridinium-induced mutagenicity in Vibrio harveyi BB7XM assessed as number of neomycin-resistant mutants at 1000 uM
[6] = system: Vibrio harveyi; experiment: Effect on 1-methyl-4-phenyl-2,3-dihydropyridinium-induced mutagenicity in Vibrio harveyi BB7XM assessed as number of neomycin-resistant mutants at 1000 uM
[7] = system: Vibrio harveyi; experiment: Effect on 1-methyl-4-phenylpyridinium-induced mutagenicity in Vibrio harveyi BB7XM assessed as number of neomycin-resistant mutants at 10 uM
[8] = system: Vibrio harveyi; experiment: Effect on 1-methyl-4-phenyl-2,3-dihydropyridinium-induced mutagenicity in Vibrio harveyi BB7XM assessed as number of neomycin-resistant mutants at 10 uM

SMILES | Activity [1] | Activity [2] | Activity [3] | Activity [4] | Activity [5] | Activity [6] | Activity [7] | Activity [8]
Cn1c(=O)c2c(ncn2C)n(C)c1=O [CAFFEINE] | 31 | 70 | 51 | 50 | 7 | 47 | 103 | 293
CC(=O)CCCCn1c(=O)c2c(ncn2C)n(C)c1=O [PENTOXIFYLLINE] | 52 | 143 | 77 | 78 | 24 | 51 | 116 | 278
